Assay results published in patent US20170035011A1, “METHODS OF IMPROVING GERMINATION OF PLANT EMBRYOS” (WEYERHAEUSER NR COMPANY, priority 2015, published 2017).

Legend:
loblolly pine embryos = experiment: Germination and germinant organ lengths of resulting embryos, Example 2; format: in vivo
Description: As used herein, the term “germination” refers to a physiological process that results in the elongation and growth of a plant embryo organs (root, hypocotyls, cotyledons) and initiation of leaves (epicotyl by the shoot apex located at the base of the cotyledons) after 1 week in the dark followed by 6 weeks in a light room at room temperature.
As used herein, the term “category 1” germination is defined by presence of a minimum of a 3 mm root, and a tuft of at least 5 epicotyl leaves, each approximately 5 mm long.
“Category 2” germination is defined as for category 1, but where epicotyls leaf presence is observed, but not meeting the 5 leaves by 5 mm length specification.
Several parameters may be measured to determine the quality of the germinants, such as root, hypocotyl, longest cotyledon leaf length, and epicotyls leaf length. […]
The responses analyzed for this report are the weekly growth, embryos per d-frame, category 1 germination, and for category 1+2: germination, germinants per d-frame, root length, the hypocotyl length, and the epicotyl length.
The proportion responses are analyzed using a generalized linear model with a logit link and binomial distribution after categorizing as a 0/1 response. The continuous responses were analyzed with a mixed linear model after taking the log transformation to account for increasing variability with higher means. […]

loblolly pine SE = experiment: Development stage studies with palatinose in maltose and glucose media; format: cell-based; conditions: standard maltose and glucose media
Description: In loblolly pine SE studies, palatinose was initially used as a non-metabolizable sugar for supplementing osmotic level. […] When used as a part of liquid multiplication media its effect depended on the sugar moieties it was associated with, and its ratio with those moieties. When paired with maltose alone, growth was largely or completely halted depending on sugar ratio, whereas when used with glucose, growth was like control (maltose only).

manufactured seed = experiment: Root initiation with palatinose in synthetic gametophyte of manufactured seed; format: in vivo; conditions: palatinose from 0 to 40 g/l in 20 g/l increments; base sugar sucrose or glucose
Description: The beneficial properties of palatinose are not limited to multiplication. The addition of palatinose to the synthetic gametophyte of manufactured seed has benefits for root initiation. […] This is true when the base sugar was sucrose or glucose.

Q: How did the “category 1 germination percentage” value (loblolly pine embryos; combining the outcomes of 3, 5, and 7 weeks of treatment) turn out when `O=C(CO)[C@@H](O)[C@H](O)[C@H](O)CO[C@H]1O[C@H](CO)[C@@H](O)[C@H](O)[C@H]1O` [palatinose, 6-O-α-d-glucopyranosyl-D-fructose] was run?
A: 9.1%

Q: What about the embryo formation (loblolly pine SE) of the same molecule?
A: inhibited embryo formation

Q: And the root presence (manufactured seed)?
A: root presence improved

Q: Which “Category 1 germination” value (loblolly pine embryos; Table 7 comparison) does the source give for `OC[C@H]1O[C@H](O[C@H]2O[C@H](CO)[C@@H](O)[C@H](O)[C@H]2O)[C@H](O)[C@@H](O)[C@@H]1O` [trehalose] here?
A: no evidence that adding trehalose had an effect
